From patent US20220168230A1, “NANOPARTICLE MEDIATED THERAPY” (Yale University, priority 2019, published 2022)

Experiments:
[1] = in vivo; cited from earlier work
[2] = PET scan of ^11C-glyburide uptake in left and right brain hemispheres of MCAO rats; assay type: in vivo, rat; conditions: intravenous injection, FIG. 1B
MCAO mice = assay: Therapeutic benefits in MCAO stroke mice (survival, TTC infarct volume, neurological score); assay type: in vivo; conditions: same amount of BA NPs and/or glyburide as in Gly-NPs, i.v. at 0, 24, 48 h, FIG. 6C, D
Text: MCAO models were generated according to Cai, et al. Neurosci Lett 2015, 597, 127-31; Guo, et al. ACS nano 2018, 12 (8), 8723-8732; Han, et al. Nanomedicine 2016, 12 (7), 1833-42; Yu, et al. Advanced Materials 2018, 30, 1705383. Briefly, rats were anesthetized with 5% isoflurane (Aerrane, Baxter, Deerfield, Ill.) in 30% O2/70% N2O using a Tabletop Anesthesia system (Harvard Apparatus, USA). Isoflurane was then maintained at 1.5%. During the procedures, the body temperature of mice was maintained at 37.0±0.5° C. Regional cerebral blood flow (rCBF) was monitored using a laser Doppler flowmeter (AD Instruments Inc.) duration the course of surgery. […]
Mice were given treatment intravenously at 0, 24 and 48 h after surgery. Mice were monitored for survival for 10 days and were euthanized if one of the following criteria was met: (1) the mouse's body weight dropped below 15% of its initial weight, or (2) the mouse became lethargic or sick and unable to feed. […] Three days later, the score of each mouse was assessed by a standard behavioral test and were scored as follows: (1) normal motor function, (2) flexion of torso and contralateral forelimb when animal was lifted by the tail, (3) hemiparalysis resulting in circling to the contralateral side when held by tail on flat surface, but normal posture at rest, (4) leaning to the contralateral side at rest, and (5) no spontaneous motor activity. […]

[3] = in vivo; cited from earlier work; remark: listed apart in the source

C[C@@H]1CC[C@H]2[C@@H](C)C(=O)O[C@@H]3O[C@@]4(C)CC[C@@H]1[C@]32OO4 [Artemisinin]
bioavailability [1]: less than 10%

COc1ccc(Cl)cc1C(=O)NCCc1ccc(S(=O)(=O)NC(=O)NC2CCCCC2)cc1 [^11C-glyburide]
^11C-glyburide uptake, ischemic versus contralateral hemisphere [2]: no significant difference

COc1ccc(Cl)cc1C(=O)NCCc1ccc(S(=O)(=O)NC(=O)NC2CCCCC2)cc1 [glyburide]
therapeutic benefits compared with Gly-NP treatment (MCAO mice): significantly less efficacy | ability to penetrate the BBB [3]: limited ability to penetrate the BBB
